Read-outs that look alike come from different tables or passages of the source.
How the values were obtained:
Erysiphae graminis = assay: Fungicidal activity against barley powdery mildew (BPM) disease, control value; format: in vivo; conditions: for pest or weed control at 50 ppm / pest or weed control at 100 ppm / pest or weed control at 2 ppm / pest or weed control at 10 ppm: 168 h, read-out: BPM control value (C.V.)
Rhizoctonia solani AG-1 = assay: Fungicidal activity against rice sheath blight (RSB) disease, control value; conditions: for RSB control value (C.V.): rice sheath blight
Phytophthora infestans = assay: whole plant or invertebrate; format: in vivo; conditions: for TLB control value (C.V.): tomato late blight; for pest or weed control at 2 ppm / pest or weed control at 10 ppm / pest or weed control at 50 ppm / pest or weed control at 100 ppm: Phytophthora infestans, in Solanum lycopersicum, read-out: TLB control value (C.V.)
Puccinia recondita = assay: Fungicidal activity against wheat leaf rust (WLR) disease, control value; format: in vivo; conditions: for pest or weed control at 2 ppm / pest or weed control at 10 ppm / pest or weed control at 50 ppm / pest or weed control at 100 ppm: read-out: WLR control value (C.V.)
[1] = tested on: Pyricularia oryzae Carvara KA301; assay: whole plant or invertebrate; format: in vivo; conditions: for RCB control value (C.V.): rice blast; for pest or weed control at 2 ppm / pest or weed control at 10 ppm / pest or weed control at 50 ppm / pest or weed control at 100 ppm: Pyricularia oryzae, read-out: RCB control value (C.V.)
Botrytis cinerae = assay: Fungicidal activity against cucumber gray mold rot (CGM) disease, control value; format: in vivo; conditions: 100 ppm; for pest or weed control at 100 ppm: Botrytis, read-out: CGM control value (C.V.)
Description: Botrytis cinerae, which was isolated from cucumber infected thereby, was inoculated on a potato agar medium (PEC) and cultured under a 12L/12D cycle at 25° C. for 15 days to form spore. The spores were scraped, filtered through a gauze and then suspended in Potato Dextrose broth at a concentration of 1×10^6 spore/ml. The spore suspension was sprayed on a cucumber plant having one leaf. The cucumber plant was held in a humidified room at 20° C. for 3 days. L.A. on a leaf was measured to calculate a C.V.

[2] = Hordeum vulgare, 50 ppm, barley powdery mildew
[3] = Hordeum vulgare, 100 ppm, barley powdery mildew
[4] = Rhizoctonia solani, AG1, in Oryza sativa, read-out: RSB control value (C.V.)

SMILES | BPM control value (C.V.) (Erysiphae graminis; 2 ppm, barley powdery mildew) | BPM control value (C.V.) (Erysiphae graminis; 10 ppm, barley powdery mildew) | BPM control value (C.V.) (Erysiphae graminis; 50 ppm, barley powdery mildew) | BPM control value (C.V.) (Erysiphae graminis; 100 ppm, barley powdery mildew) | RSB control value (C.V.) (Rhizoctonia solani AG-1; 100 ppm) | TLB control value (C.V.) (Phytophthora infestans; 50 ppm) | TLB control value (C.V.) (Phytophthora infestans; 100 ppm) | WLR control value (C.V.) (Puccinia recondita; 100 ppm, wheat leaf rust) | RCB control value (C.V.) ([1]; 2 ppm) | RCB control value (C.V.) ([1]; 50 ppm) | RCB control value (C.V.) ([1]; 100 ppm) | CGM control value (C.V.) (Botrytis cinerae; cucumber gray mold rot) | pest or weed control at 100 ppm (Rhizoctonia solani AG-1; [4]) | pest or weed control at 10 ppm (Phytophthora infestans) | pest or weed control at 50 ppm (Phytophthora infestans) | pest or weed control at 100 ppm (Phytophthora infestans) | pest or weed control at 2 ppm [1] | pest or weed control at 10 ppm [1] | pest or weed control at 50 ppm [1] | pest or weed control at 100 ppm [1] | also measured
CO/N=C(/C(=O)OC)c1ccccc1CON=C(C)c1cccc(C=C(Br)Br)c1 [Example 23, methyl-(E)-2-[[[[[2-[3-(2,2-dibromovinyl)phenyl](1-methyl)methylidene]amino]oxy]methyl]phenyl]-2-methoxyiminoacetate] | 20% | 50% | 80% | 95% | 100% | 55% | 93% | 80% | 90% | 100% | 100% | 34% |  |  |  |  |  |  |  |  | RSB control value (C.V.) (Rhizoctonia solani AG-1; 2 ppm): 98%; RSB control value (C.V.) (Rhizoctonia solani AG-1; 10 ppm): 100%; RSB control value (C.V.) (Rhizoctonia solani AG-1; 50 ppm): 100%; RCB control value (C.V.) ([1]; 10 ppm): 97%
CNC(=O)/C(=N/OC)c1ccccc1COc1ccc(C=C(F)F)cc1 [Example 10, (E)-2-(2-((4-(2,2-difluorovinyl)phenoxy)methyl)phenyl)-2-methoxyimino-N-methylacetamide] |  |  |  |  |  |  |  |  |  |  |  |  | 45% | 100% | 100% | 100% | 100% | 100% | 100% | 100% | pest or weed control at 50 ppm (Erysiphae graminis; [2]): 60%; pest or weed control at 100 ppm (Erysiphae graminis; [3]): 98%; pest or weed control at 2 ppm (Phytophthora infestans): 100%; pest or weed control at 2 ppm (Puccinia recondita; 2 ppm, wheat leaf rust): 100%; pest or weed control at 10 ppm (Puccinia recondita; 10 ppm, wheat leaf rust): 100%; pest or weed control at 50 ppm (Puccinia recondita; 50 ppm, wheat leaf rust): 100%; pest or weed control at 100 ppm (Puccinia recondita; 100 ppm, wheat leaf rust): 100%; pest or weed control at 100 ppm (Botrytis cinerae; cucumber gray mold rot): 50%
CNC(=O)/C(=N/OC)c1ccccc1CON=C(C)c1cccc(C=C(F)F)c1 [Example 28, (E)-2-[[[[[2-[3-(2,2-difluorovinyl)phenyl](1-methyl)methylidene]amino]oxy]methyl]phenyl]-2-methoxyimino-N-methylacetamide] |  |  | 60% | 90% | 35% |  | 60% | 100% |  | 70% | 95% | 50% |  |  |  |  |  |  |  |  | WLR control value (C.V.) (Puccinia recondita; 2 ppm, wheat leaf rust): 40%; WLR control value (C.V.) (Puccinia recondita; 10 ppm, wheat leaf rust): 90%; WLR control value (C.V.) (Puccinia recondita; 50 ppm, wheat leaf rust): 100%
CNC(=O)/C(=N/OC)c1ccccc1COc1ccc(C=C(Br)Br)cc1 [Example 8, (E)-2-(2-((4-(2,2-dibromovinyl)phenoxy)methyl)phenyl)-2-methoxyimino-N-methylacetamide] |  |  |  |  |  |  |  |  |  |  |  |  | 32% | 100% | 100% | 100% | 90% | 97% | 100% | 100% | pest or weed control at 2 ppm (Erysiphae graminis; Hordeum vulgare, 2 ppm, barley powdery mildew): 99%; pest or weed control at 10 ppm (Erysiphae graminis; Hordeum vulgare, 10 ppm, barley powdery mildew): 100%; pest or weed control at 50 ppm (Erysiphae graminis; [2]): 100%; pest or weed control at 100 ppm (Erysiphae graminis; [3]): 100%; pest or weed control at 2 ppm (Phytophthora infestans): 98%; pest or weed control at 2 ppm (Puccinia recondita; 2 ppm, wheat leaf rust): 90%; pest or weed control at 10 ppm (Puccinia recondita; 10 ppm, wheat leaf rust): 90%; pest or weed control at 50 ppm (Puccinia recondita; 50 ppm, wheat leaf rust): 98%; pest or weed control at 100 ppm (Puccinia recondita; 100 ppm, wheat leaf rust): 100%; pest or weed control at 100 ppm (Botrytis cinerae; cucumber gray mold rot): 7%
CO/N=C(/C(=O)OC)c1ccccc1CON=C(C)c1cccc(C=C(F)F)c1 [Example 27, methyl-(E)-2-[[[[[2-[3-(2,2-difluorovinyl)phenyl](1-methyl)methylidene]amino]oxy]methyl]phenyl]-2-methoxyiminoacetate] | 98% | 100% | 100% | 100% | 0% | 100% | 100% | 100% | 90% | 100% | 100% | 55% |  |  |  |  |  |  |  |  | TLB control value (C.V.) (Phytophthora infestans; 2 ppm): 98%; TLB control value (C.V.) (Phytophthora infestans; 10 ppm): 100%; WLR control value (C.V.) (Puccinia recondita; 2 ppm, wheat leaf rust): 100%; WLR control value (C.V.) (Puccinia recondita; 10 ppm, wheat leaf rust): 100%; WLR control value (C.V.) (Puccinia recondita; 50 ppm, wheat leaf rust): 100%; RCB control value (C.V.) ([1]; 10 ppm): 97%
CO/N=C(/C(=O)OC)c1ccccc1COc1c(C)cccc1C=C(Br)Br [Example 73, methyl-(E)-2-(2-((2-(2,2-dibromovinyl)-6-methylphenoxy)methyl)phenyl)-2-methoxyiminoacetate] |  |  |  |  |  |  |  |  |  |  |  |  | 10% | 10% | 90% | 100% | 70% | 90% | 100% | 100% | pest or weed control at 2 ppm (Erysiphae graminis; 2 ppm): 15%; pest or weed control at 10 ppm (Erysiphae graminis; 10 ppm): 60%; pest or weed control at 50 ppm (Erysiphae graminis; 50 ppm): 93%; pest or weed control at 100 ppm (Erysiphae graminis; 100 ppm): 95%; pest or weed control at 2 ppm (Puccinia recondita; Puccinia recondita, 2 ppm): 100%; pest or weed control at 10 ppm (Puccinia recondita; Puccinia recondita, 10 ppm): 100%; pest or weed control at 50 ppm (Puccinia recondita; Puccinia recondita, 50 ppm): 100%; pest or weed control at 100 ppm (Puccinia recondita; Puccinia recondita, 100 ppm): 100%; pest or weed control at 100 ppm (Botrytis cinerae): 20%
CNC(=O)/C(=N/OC)c1ccccc1COc1c(C)cccc1C=C(Br)Br [Example 74, (E)-2-(2-((2-(2,2-dibromovinyl)-6-methylphenoxy)methyl)phenyl)-2-methoxyimino-N-methylacetamide] |  |  |  |  |  |  |  |  |  |  |  |  | 100% | 80% | 90% | 100% | 10% | 90% | 100% | 100% | pest or weed control at 2 ppm (Erysiphae graminis; 2 ppm): 92%; pest or weed control at 10 ppm (Erysiphae graminis; 10 ppm): 100%; pest or weed control at 50 ppm (Erysiphae graminis; 50 ppm): 100%; pest or weed control at 100 ppm (Erysiphae graminis; 100 ppm): 100%; pest or weed control at 2 ppm (Rhizoctonia solani AG-1; [4]): 67%; pest or weed control at 10 ppm (Rhizoctonia solani AG-1; [4]): 80%; pest or weed control at 50 ppm (Rhizoctonia solani AG-1; [4]): 90%; pest or weed control at 2 ppm (Puccinia recondita; Puccinia recondita, 2 ppm): 90%; pest or weed control at 10 ppm (Puccinia recondita; Puccinia recondita, 10 ppm): 99%; pest or weed control at 50 ppm (Puccinia recondita; Puccinia recondita, 50 ppm): 100%; pest or weed control at 100 ppm (Puccinia recondita; Puccinia recondita, 100 ppm): 100%; pest or weed control at 100 ppm (Botrytis cinerae): 35%
CO/N=C(/C(=O)OC)c1ccccc1CON=C(C)c1ccc(C=C(Cl)Br)cc1 [Example 37, methyl-(E)-2-[[[[[2-[4-(2-bromo-2-chlorovinyl)phenyl](1-methyl)methylidene]amino]oxy]methyl]phenyl]-2-methoxyiminoacetate] | 35% | 90% | 93% | 95% | 90% | 90% | 100% | 100% | 75% | 100% | 100% | 50% |  |  |  |  |  |  |  |  | TLB control value (C.V.) (Phytophthora infestans; 10 ppm): 10%; WLR control value (C.V.) (Puccinia recondita; 2 ppm, wheat leaf rust): 100%; WLR control value (C.V.) (Puccinia recondita; 10 ppm, wheat leaf rust): 100%; WLR control value (C.V.) (Puccinia recondita; 50 ppm, wheat leaf rust): 100%; RCB control value (C.V.) ([1]; 10 ppm): 90%

From patent US8410302B2, “Methoxyimino compounds and fungicide composition comprising same” (Kyung Nong Corporation, priority 2007, dated 2013)
